According to article PMC10247784, “Physiological activation of human and mouse bitter taste receptors by bile acids” (Communications Biology, 2023):

Target: T1, mouse Tas2r144 (Mus musculus, UniProt Q7TQB8)
T1 construct: expressed in transfected cells; host or cells: HEK293T-Gα16gust44
Assay: Calcium imaging assay (FLIPR), HEK293T-Gα16gust44 cells transfected with mouse Tas2r144
Format: cell-based
Procedure: This set of bile acids was chosen because of their commercial availability in high purities, their diversity within the class of bile acids and their previous detection and quantitation in human blood. Stock solutions were prepared in DMSO.
As basal growth medium for the HEK293T-Gα16gust44 cell line[17],[59] served Dulbecco’s modified eagle medium (DMEM) (Thermo Fisher Scientific, Darmstadt, Germany) supplemented with 10 % fetal bovine serum (Sigma-Aldrich, Steinheim, Germany), 2 mM L-glutamine (Sigma-Aldrich, Steinheim, Germany), 100 units/ml penicillin (Sigma Aldrich, Steinheim, Germany) and 100 µg/ml streptomycin (Sigma Aldrich, Steinheim, Germany). Growth conditions were 37 °C, 5 % CO2 and saturated air-humidity[60].
HEK293T-Gα16gust44 cells were seeded on poly-D-lysine (10 µg/ml) coated 96-well plates to reach a confluence of 40-60 % the next day. For transient transfection 150 ng of plasmid DNA containing the receptor of interest and 0.3 µl lipofectamine 2000 (Thermo Fisher Scientific, Darmstadt, Germany) per well were used and transfection took place according to the manual of lipofectamine 2000. […] The empty vector DNA (mock) was transfected as negative control[14],[41].
Cells were loaded using the calcium-sensitive fluorescent dye Fluo-4-AM (Abcam, Cambridge, Great Britain) in the presence of 2.5 mM probenecid (Sigma-Aldrich, Steinheim, Germany) the day after transfection[13],[41]. 1 h after loading, cells were washed with C1 buffer using a BioTek Cell Washer, incubated in the dark for half an hour and washed again. For automated agonist application and measurement of fluorescence changes, a FLIPR^TETRA device (Molecular Devices, San José, United States) was used. Viability of cells was tested by application of 100 nM Somatostatin 14 (Bachem, Bubendorf, Switzerland)[42].
Measured data were negative control corrected by subtracting the signal of the mock-transfected cells and exported to Microsoft Excel using the FLIPR software ScreenWorks 4.2. In Microsoft Excel software, standardization of maximum fluorescence intensities to the basal fluorescence and normalization to the buffer-only control was done to calculate the relative fluorescence changes (ΔF/F).
Initial screening experiments performed in duplicate wells were confirmed by at least one replication and representative traces were selected for display. All dose-response relationships were determined by three independent experiments (biological replicates) performed in duplicates (technical replicates). Threshold concentrations, defined as lowest substance concentrations leading to statistically significant elevated fluorescence changes in receptor-transfected cells compared with empty vector-transfected cells, were determined using SigmaPlot with Student’s t-test to evaluate statistical significance (p < 0.01).

T1 sequence (Q7TQB8 whole entry): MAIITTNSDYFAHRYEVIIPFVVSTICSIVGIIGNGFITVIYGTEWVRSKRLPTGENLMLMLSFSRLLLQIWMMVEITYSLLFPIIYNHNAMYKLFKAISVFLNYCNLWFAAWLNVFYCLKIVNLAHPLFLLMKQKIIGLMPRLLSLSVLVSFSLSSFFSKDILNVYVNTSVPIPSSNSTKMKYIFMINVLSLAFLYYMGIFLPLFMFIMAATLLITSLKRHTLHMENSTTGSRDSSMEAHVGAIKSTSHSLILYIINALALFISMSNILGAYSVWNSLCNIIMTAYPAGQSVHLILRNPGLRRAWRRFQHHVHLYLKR

Structure (SMILES): C[C@H](CCC(=O)O)[C@H]1CC[C@H]2[C@@H]3[C@H](O)C[C@@H]4C[C@H](O)CC[C@]4(C)[C@H]3C[C@H](O)[C@]12C [Cholic Acid, cholic acid]
- RLU (Time 0 s): 0 RLU
- RLU (Time 2 s): 0.2042 RLU
- RLU (Time 4 s): 5.384 RLU
- RLU (Time 6 s): -45.6095 RLU
- RLU (Time 8 s): 13.5839 RLU
- RLU (Time 12 s): 34.8706 RLU
- RLU (Time 14 s): 52.0817 RLU
- RLU (Time 16 s): 11.4185 RLU
- RLU (Time 18 s): 29.9569 RLU
- RLU (Time 18.781 s): 46.048 RLU
- RLU (Time 20.781 s): 112.965 RLU
- RLU (Time 22.781 s): 165.689 RLU
- RLU (Time 24.781 s): 205.772 RLU
- RLU (Time 26.781 s): 242.163 RLU
- RLU (Time 28.781 s): 320.656 RLU
- RLU (Time 30.781 s): 367.762 RLU
- RLU (Time 32.781 s): 422.903 RLU
- RLU (Time 34.781 s): 499.119 RLU
- RLU (Time 36.781 s): 524.9 RLU
- RLU (Time 38.781 s): 565.569 RLU
- RLU (Time 40.781 s): 583.905 RLU
- RLU (Time 42.781 s): 606.644 RLU
- RLU (Time 44.781 s): 633.066 RLU
- RLU (Time 46.781 s): 639.921 RLU
- RLU (Time 48.781 s): 638.534 RLU
- RLU (Time 50.781 s): 641.518 RLU
- RLU (Time 52.781 s): 632.385 RLU
- RLU (Time 54.781 s): 644.317 RLU
- RLU (Time 56.781 s): 655.573 RLU
- RLU (Time 58.781 s): 678.513 RLU
- RLU (Time 60.781 s): 666.775 RLU
- RLU (Time 62.781 s): 667.745 RLU
- RLU (Time 64.781 s): 637 RLU
- RLU (Time 66.781 s): 647.88 RLU
- RLU (Time 68.781 s): 635.725 RLU
- RLU (Time 70.781 s): 644.081 RLU
- RLU (Time 72.781 s): 655.408 RLU
- RLU (Time 74.781 s): 647.263 RLU
- RLU (Time 76.781 s): 633.033 RLU
- RLU (Time 78.781 s): 631.561 RLU
- RLU (Time 80.781 s): 620.522 RLU
- RLU (Time 82.781 s): 627.467 RLU
- RLU (Time 84.781 s): 627.103 RLU
- RLU (Time 86.781 s): 578.642 RLU
- RLU (Time 88.781 s): 568.631 RLU
- RLU (Time 90.781 s): 548.759 RLU
- RLU (Time 92.781 s): 576.256 RLU
- RLU (Time 94.781 s): 543.082 RLU
- RLU (Time 96.781 s): 562.136 RLU
- RLU (Time 98.781 s): 521.114 RLU
- RLU (Time 100.781 s): 533.293 RLU
- RLU (Time 102.781 s): 509.746 RLU
- RLU (Time 104.781 s): 492.298 RLU
- RLU (Time 106.781 s): 485.694 RLU
- RLU (Time 108.781 s): 481.982 RLU
- RLU (Time 110.781 s): 458.143 RLU
- RLU (Time 112.781 s): 439.768 RLU
- RLU (Time 114.781 s): 433.077 RLU
- RLU (Time 116.781 s): 415.823 RLU
- RLU (Time 118.781 s): 408.859 RLU
- RLU (Time 120.781 s): 392.039 RLU
- RLU (Time 122.781 s): 431.314 RLU
- RLU (Time 124.781 s): 392.828 RLU
- RLU (Time 126.781 s): 373.554 RLU
- RLU (Time 128.781 s): 347.376 RLU
- RLU (Time 130.781 s): 337.354 RLU
- RLU (Time 132.781 s): 314.537 RLU
- RLU (Time 134.781 s): 326.444 RLU
- RLU (Time 136.781 s): 292.52 RLU
- RLU (Time 137.562 s): 313.513 RLU
- RLU (Time 143.562 s): 250.659 RLU
- RLU (Time 149.562 s): 229.584 RLU
- RLU (Time 155.562 s): 203.982 RLU
- RLU (Time 161.562 s): 211.817 RLU
- RLU (Time 167.562 s): 206.485 RLU
- RLU (Time 173.562 s): 171.281 RLU
- RLU (Time 179.562 s): 153.445 RLU
- RLU (Time 185.562 s): 144.359 RLU
- RLU (Time 191.562 s): 143.458 RLU
- RLU (Time 197.562 s): 135.182 RLU
- RLU (Time 203.562 s): 115.034 RLU
- RLU (Time 209.562 s): 107.877 RLU
- RLU (Time 215.562 s): 83.8781 RLU
- RLU (Time 221.562 s): 20.807 RLU
- RLU (Time 227.562 s): 27.2515 RLU
- RLU (Time 233.562 s): -2.456 RLU
- RLU (Time 239.562 s): 17.5402 RLU
- RLU (Time 245.562 s): -0.008323 RLU
- RLU (Time 293.562 s): 2 RLU
- RLU (Time 299.562 s): -5.681 RLU
- RLU (Time 305.562 s): 20.6398 RLU
- RLU (Time 311.562 s): 25.3808 RLU
- RLU (Time 317.562 s): 16.3914 RLU
- RLU (Time 323.562 s): 41.1546 RLU
- RLU (Time 329.562 s): -2.456 RLU
- RLU (Time 335.562 s): 34.2464 RLU
- RLU (Time 341.562 s): 21.8644 RLU
- RLU (Time 347.562 s): 15.2738 RLU
- RLU (Time 353.562 s): 29.9395 RLU
- RLU (Time 359.562 s): 27.2515 RLU
- Activation threshold concentration Tas2r144 (p < 0.01 vs empty vector): 100 µM
